From US12655116B2, “Substituted isophthalic acid diamides” (Bayer Aktiengesellschaft, priority 2020, dated 2026)

Experiments:
ABUTH [1] = experiment: Pre-emergence herbicidal action against ABUTH; assay type: in vivo, Abutilon theophrasti; conditions: Abutilon theophrasti, 504 h
Method in brief: (§1)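 Sandy loam pots, seeds covered with soil, then surface-treated with WP or EC formulations at 600–800 l/ha water plus 0.2% wetting agent. Greenhouse, 3 weeks. Percent damage vs untreated controls.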

ALOMY [2] = experiment: Pre-emergence herbicidal action against ALOMY; assay type: in vivo, Alopecurus myosuroides; conditions: Alopecurus myosuroides, 504 h; 80 g/ha, pre-emergence, scored visually after 3 weeks vs untreated controls (100% = plants have died, 0% = like control plants)
Method in brief: as §1

AMARE [3] = experiment: Pre-emergence herbicidal action against AMARE; assay type: in vivo, Amaranthus retroflexus; conditions: Amaranthus retroflexus, 504 h, scored visually after 3 weeks vs untreated controls, 100% = plants have died, 0% = like control plants
Method in brief: as §1

AVEFA [4] = experiment: Pre-emergence herbicidal action against AVEFA; assay type: in vivo, Avena fatua; conditions: Avena fatua, 504 h; 80 g/ha, pre-emergence
Method in brief: as §1

ECHCG [5] = experiment: Pre-emergence herbicidal action against ECHCG; assay type: in vivo, Echinochloa crus-galli; conditions: Echinochloa crus-galli, 504 h
Method in brief: as §1

MATIN [6] = experiment: Pre-emergence herbicidal action against MATIN; assay type: in vivo, Matricaria inodora; conditions: Tripleurospermum inodorum, 504 h
Method in brief: as §1

PHBPU [7] = experiment: Pre-emergence herbicidal action against PHBPU; assay type: in vivo, Pharbitis purpurea; conditions: Ipomoea purpurea, 504 h, dosage 80 g/ha
Method in brief: as §1

POLCO [8] = experiment: Pre-emergence herbicidal action against POLCO; assay type: in vivo, Polygonum convolvulus; conditions: Fallopia convolvulus, 504 h, dosage 80 g/ha
Method in brief: as §1

SETVI [9] = experiment: Pre-emergence herbicidal action against SETVI; assay type: in vivo, Setaria viridis; conditions: Setaria viridis, 504 h, dosage 80 g/ha
Method in brief: as §1

STEME [10] = experiment: Pre-emergence herbicidal action against STEME; assay type: in vivo, Stellaria media; conditions: Stellaria media, 504 h
Method in brief: as §1

VERPE [11] = experiment: Pre-emergence herbicidal action against VERPE; assay type: in vivo, Veronica persica; conditions: Veronica persica, 504 h, dosage 80 g/ha
Method in brief: as §1

VIOTR [12] = experiment: Pre-emergence herbicidal action against VIOTR; assay type: in vivo, Viola tricolor; conditions: Viola tricolor, 504 h
Method in brief: as §1

DIGSA [13] = experiment: Pre-emergence herbicidal action against DIGSA; assay type: in vivo, Digitaria sanguinalis; conditions: Digitaria sanguinalis, 504 h
Method in brief: as §1

ABUTH [14] = experiment: Post-emergence herbicidal action against ABUTH; assay type: in vivo, Abutilon theophrasti; conditions: Abutilon theophrasti, 504 h, visual assessment about 3 weeks after treatment vs untreated controls
Method in brief: (§2)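 Herbicidal action is a visual percentage rating (0% = as untreated control, 100% = plants dead) made roughly 3 weeks after treatment. Plants were grown in sandy loam in the greenhouse and treated at the one-leaf stage, 2 to 3 weeks post-sowing. Treatment was a foliar spray of wettable-powder or emulsion-concentrate formulations at 600 to 800 l/ha water plus 0.2% wetting agent.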

ALOMY [15] = experiment: Post-emergence herbicidal action against ALOMY; assay type: in vivo, Alopecurus myosuroides; conditions: Alopecurus myosuroides, 504 h, dosage 20 g/ha, visual assessment about 3 weeks after treatment vs untreated controls
Method in brief: as §2

AMARE [16] = experiment: Post-emergence herbicidal action against AMARE; assay type: in vivo, Amaranthus retroflexus; conditions: Amaranthus retroflexus, 504 h, 20 g/ha, visual assessment about 3 weeks after treatment, 100% = plants have died, 0% = like control plants
Method in brief: as §2

AVEFA [17] = experiment: Post-emergence herbicidal action against AVEFA; assay type: in vivo, Avena fatua; conditions: Avena fatua, 504 h, 20 g/ha, visual assessment about 3 weeks after treatment, 100% = plants have died, 0% = like control plants
Method in brief: as §2

ECHCG [18] = experiment: Post-emergence herbicidal action against ECHCG; assay type: in vivo, Echinochloa crus-galli; conditions: Echinochloa crus-galli, 504 h
Method in brief: as §2

MATIN [19] = experiment: Post-emergence herbicidal action against MATIN; assay type: in vivo, Matricaria inodora; conditions: Tripleurospermum inodorum, 504 h
Method in brief: as §2

PHBPU [20] = experiment: Post-emergence herbicidal action against PHBPU; assay type: in vivo, Pharbitis purpurea; conditions: Ipomoea purpurea, 504 h
Method in brief: as §2

POLCO [21] = experiment: Post-emergence herbicidal action against POLCO; assay type: in vivo, Polygonum convolvulus; conditions: Fallopia convolvulus, 504 h, dosage 20 g/ha
Method in brief: as §2

SETVI [22] = experiment: Post-emergence herbicidal action against SETVI; assay type: in vivo, Setaria viridis; conditions: Setaria viridis, 504 h
Method in brief: as §2

STEME [23] = experiment: Post-emergence herbicidal action against STEME; assay type: in vivo, Stellaria media; conditions: Stellaria media, 504 h
Method in brief: as §2

VERPE [24] = experiment: Post-emergence herbicidal action against VERPE; assay type: in vivo, Veronica persica; conditions: Veronica persica, 504 h
Method in brief: as §2

VIOTR [25] = experiment: Post-emergence herbicidal action against VIOTR; assay type: in vivo, Viola tricolor; conditions: Viola tricolor, 504 h, 20 g/ha
Method in brief: as §2

DIGSA [26] = experiment: Post-emergence herbicidal action against DIGSA; assay type: in vivo, Digitaria sanguinalis; conditions: Digitaria sanguinalis, 504 h
Method in brief: as §2

CCNC(=O)c1c(C(F)F)ccc(C(=O)Nc2nnnn2C)c1SC [Example 1-88]
pest or weed control at 80 g/ha (ABUTH [1]; 80 g/ha, scored visually after 3 weeks vs untreated controls (100% = plants have died, 0% = like control plants)): 100%
pest or weed control at 20 g/ha (ABUTH [1]; dosage 20 g/ha, scored visually after 3 weeks vs untreated controls, 100% = plants have died, 0% = like control plants, read-out: Pre-emergence action against ABUTH (herbicidal activity in percent)): 100%
pest or weed control at 80 g/ha (ALOMY [2]): 90%
pest or weed control at 20 g/ha (AMARE [3]; 20 g/ha): 100%
pest or weed control at 80 g/ha (AMARE [3]; 80 g/ha): 100%
pest or weed control at 80 g/ha (AVEFA [4]): 90%
pest or weed control at 20 g/ha (ECHCG [5]; 20 g/ha): 90%
pest or weed control at 80 g/ha (ECHCG [5]; 80 g/ha): 100%
pest or weed control at 20 g/ha (MATIN [6]; dosage 20 g/ha): 100%
pest or weed control at 80 g/ha (MATIN [6]; dosage 80 g/ha): 100%
pest or weed control at 80 g/ha (PHBPU [7]): 90%
pest or weed control at 80 g/ha (POLCO [8]): 80%
pest or weed control at 80 g/ha (SETVI [9]): 100%
pest or weed control at 20 g/ha (STEME [10]; dosage 20 g/ha): 100%
pest or weed control at 80 g/ha (STEME [10]; dosage 80 g/ha): 100%
pest or weed control at 80 g/ha (VERPE [11]): 100%
pest or weed control at 20 g/ha (VIOTR [12]; dosage 20 g/ha): 100%
pest or weed control at 80 g/ha (VIOTR [12]; dosage 80 g/ha): 100%
pest or weed control at 20 g/ha (DIGSA [13]; dosage 20 g/ha): 100%
pest or weed control at 80 g/ha (DIGSA [13]; dosage 80 g/ha): 100%
pest or weed control at 5 g/ha (ABUTH [14]; dosage 5 g/ha): 90%
pest or weed control at 20 g/ha (ABUTH [14]; dosage 20 g/ha): 90%
pest or weed control at 20 g/ha (ALOMY [15]): 80%
pest or weed control at 20 g/ha (AMARE [16]): 90%
pest or weed control at 20 g/ha (AVEFA [17]): 80%
pest or weed control at 5 g/ha (ECHCG [18]; dosage 5 g/ha): 80%
pest or weed control at 20 g/ha (ECHCG [18]; dosage 20 g/ha): 90%
pest or weed control at 5 g/ha (MATIN [19]; dosage 5 g/ha): 80%
pest or weed control at 20 g/ha (MATIN [19]; dosage 20 g/ha): 80%
pest or weed control at 5 g/ha (PHBPU [20]; dosage 5 g/ha): 80%
pest or weed control at 20 g/ha (PHBPU [20]; dosage 20 g/ha): 90%
pest or weed control at 20 g/ha (POLCO [21]): 80%
pest or weed control at 5 g/ha (SETVI [22]; dosage 5 g/ha): 80%
pest or weed control at 20 g/ha (SETVI [22]; dosage 20 g/ha): 90%
pest or weed control at 20 g/ha (STEME [23]; 20 g/ha): 90%
pest or weed control at 5 g/ha (STEME [23]; dosage 5 g/ha): 90%
pest or weed control at 5 g/ha (VERPE [24]; 5 g/ha): 80%
pest or weed control at 20 g/ha (VERPE [24]; 20 g/ha): 90%
pest or weed control at 20 g/ha (VIOTR [25]): 80%
pest or weed control at 5 g/ha (DIGSA [26]; 5 g/ha): 90%
pest or weed control at 20 g/ha (DIGSA [26]; 20 g/ha): 90%
